Results reported in ChEMBL document CHEMBL5036347, “Design of the naphthyl-diarylpyrimidines as potent non-nucleoside reverse transcriptase inhibitors (NNRTIs) via structure-based extension into the entrance channel” (Eur J Med Chem, 2021).
Values after ≈ are worked out from the molar mass of the structure shown.

Key:
[1] = molecular target: Human immunodeficiency virus type 1 reverse transcriptase (Human immunodeficiency virus 1, UniProt Q72547, E138K); experiment: Inhibition of HIV1 reverse transcriptase E138K mutant using oligo(dT)16 as primer measured after 40 mins by picogreen-dye based spectrofluorimetric analysis
[2] = Water solubility of compound at pH 2 at 0.1 to 10 mg by HPLC-UV analysis; format: physicochemical; settings: dose 0.1-10 mg
[3] = (§1) Cytotoxicity against human MT4 cells assessed as reduction in cell viability incubated for 5 days by MTT assay; format: cell-based; settings: human, MT4 cells; time 5 day
[4] = molecular target: Human immunodeficiency virus type 1 reverse transcriptase (Human immunodeficiency virus 1, UniProt Q72547, L100I); experiment: Inhibition of HIV1 reverse transcriptase L100I mutant using oligo(dT)16 as primer measured after 40 mins by picogreen-dye based spectrofluorimetric analysis
[5] = system: Human immunodeficiency virus 1; experiment: Antiviral activity against HIV1 harboring reverse transcriptase Y188L mutant infected in human MT4 cells assessed as protection against virus-induced cytopathic effect incubated for 5 days by MTT assay; format: functional, organism-based; settings: Human immunodeficiency virus 1, MT4, 120 h
[6] = Water solubility of compound at pH 7.4 at 0.1 to 10 mg by HPLC-UV analysis; format: physicochemical; settings: dose 0.1-10 mg
[7] = system: Human immunodeficiency virus 1; experiment: Antiviral activity against HIV1 harboring reverse transcriptase Y181C mutant infected in human MT4 cells assessed as protection against virus-induced cytopathic effect incubated for 5 days by MTT assay; format: functional, organism-based; settings: Human immunodeficiency virus 1, MT4, 120 h
[8] = Selectivity index, ratio of CC50 for cytotoxicity against human MT4 cells to EC50 of Anti-HIV activity against HIV-1 IIIB infected in human MT4; format: toxicity, cell-based; settings: read-out: Selectivity Index
[9] = Resistance fold, ratio of EC50 for HIV1 harboring reverse transcriptase Y181C mutant […] to EC50 for wild type HIV1 […]; format: functional
[10] = system: Human immunodeficiency virus 1; experiment: Antiviral activity against HIV1 harboring reverse transcriptase K103N mutant infected in human MT4 cells assessed as protection against virus-induced cytopathic effect incubated for 5 days by MTT assay; format: functional, organism-based; settings: Human immunodeficiency virus 1, MT4, 120 h
[11] = molecular target: Human immunodeficiency virus type 1 reverse transcriptase (Human immunodeficiency virus 1, UniProt Q72547); experiment: Inhibition of wild type HIV1 reverse transcriptase using oligo(dT)16 as primer measured after 40 mins by picogreen-dye based spectrofluorimetric analysis
[12] = system: Human immunodeficiency virus 1; experiment: Antiviral activity against HIV1 harboring reverse transcriptase L100I mutant infected in human MT4 cells assessed as protection against virus-induced cytopathic effect incubated for 5 days by MTT assay; format: functional, organism-based; settings: Human immunodeficiency virus 1, MT4, 120 h
[13] = system: Human immunodeficiency virus 1; experiment: Antiviral activity against HIV1 harboring reverse transcriptase F227L/V106A mutant infected in human MT4 cells assessed as protection against virus-induced cytopathic effect incubated for 5 days by MTT assay; format: functional, organism-based; settings: Human immunodeficiency virus 1, MT4, 120 h
[14] = molecular target: Human immunodeficiency virus type 1 reverse transcriptase (Human immunodeficiency virus 1, UniProt Q72547, K103N); experiment: Inhibition of HIV1 reverse transcriptase K103N mutant using oligo(dT)16 as primer measured after 40 mins by picogreen-dye based spectrofluorimetric analysis
[15] = system: Human immunodeficiency virus 1; experiment: Antiviral activity against HIV1 harboring reverse transcriptase E138K mutant infected in human MT4 cells assessed as protection against virus-induced cytopathic effect incubated for 5 days by MTT assay; format: functional, organism-based; settings: Human immunodeficiency virus 1, MT4, 120 h
[16] = molecular target: Human immunodeficiency virus type 1 reverse transcriptase (Human immunodeficiency virus 1, UniProt Q72547, Y181C); experiment: Inhibition of HIV1 reverse transcriptase Y181C mutant using oligo(dT)16 as primer measured after 40 mins by picogreen-dye based spectrofluorimetric analysis
[17] = Resistance fold, ratio of EC50 for HIV1 harboring reverse transcriptase E138K mutant […] to EC50 for wild type HIV1 […]; format: functional
[18] = Resistance fold, ratio of EC50 for HIV1 harboring reverse transcriptase K103N/Y181C double mutant […] to EC50 for wild type HIV1 […]; format: functional
[19] = Resistance fold, ratio of EC50 for HIV1 harboring reverse transcriptase F227L/V106A double mutant […] to EC50 for wild type HIV1 […]; format: functional
[20] = system: Human immunodeficiency virus 1; experiment: Anti-HIV activity against HIV-1 IIIB infected in human MT4 cells assessed as reduction in virus-induced cytopathic effect incubated for 5 days by MTT assay; format: functional, organism-based; settings: Human immunodeficiency virus 1, IIIB, MT4, 120 h
[21] = Resistance fold, ratio of EC50 for HIV1 harboring reverse transcriptase K103N mutant […] to EC50 for wild type HIV1 […]; format: functional
[22] = system: Human immunodeficiency virus 2; experiment: Anti-HIV activity against HIV2 ROD infected in human MT4 cells assessed as reduction in virus-induced cytopathic effect incubated for 5 days by MTT assay; format: functional, organism-based; settings: Human immunodeficiency virus 2, ROD, MT4, 120 h
[23] = Resistance fold, ratio of EC50 for HIV1 harboring reverse transcriptase Y188L mutant […] to EC50 for wild type HIV1 […]; format: functional
[24] = molecular target: Human immunodeficiency virus type 1 reverse transcriptase (Human immunodeficiency virus 1, UniProt Q72547, Y188L); experiment: Inhibition of HIV1 reverse transcriptase Y188L mutant using oligo(dT)16 as primer measured after 40 mins by picogreen-dye based spectrofluorimetric analysis
[25] = Resistance fold, ratio of EC50 for HIV1 harboring reverse transcriptase L100I mutant […] to EC50 for wild type HIV1 […]; format: functional
[26] = Water solubility of compound at pH 7 at 0.1 to 10 mg by HPLC-UV analysis; format: physicochemical; settings: dose 0.1-10 mg
[27] = system: Human immunodeficiency virus 1; experiment: Antiviral activity against HIV1 harboring reverse transcriptase K103N/Y181C double mutant infected in human MT4 cells assessed as protection against virus-induced cytopathic effect incubated for 5 days by MTT assay; format: functional, organism-based; settings: Human immunodeficiency virus 1, MT4, 120 h
[28] = molecular target: Human immunodeficiency virus type 1 reverse transcriptase (Human immunodeficiency virus 1, UniProt Q72547, K103N/Y181C); experiment: Inhibition of HIV1 reverse transcriptase K103N/Y181C double mutant using oligo(dT)16 as primer measured after 40 mins by picogreen-dye based spectrofluorimetric analysis
[29] = molecular target: Human immunodeficiency virus type 1 reverse transcriptase (Human immunodeficiency virus 1, UniProt Q72547, F227L/V106A); experiment: Inhibition of HIV1 reverse transcriptase F227L/V106A double mutant using oligo(dT)16 as primer measured after 40 mins by picogreen-dye based spectrofluorimetric analysis
[30] = system: MT4; experiment: as §1; format: cell-based; settings: Homo sapiens, MT4, 120 h

Structure (SMILES)	IC50 [1]	CC50 at 120 h [3]	EC50 [5]	EC50 [7]	selectivity ratio [8]	Ratio EC50 [9]	EC50 [10]	IC50 [11]	EC50 [12]	EC50 [13]	EC50 [15]	Ratio EC50 [17]	Ratio EC50 [18]	Ratio EC50 [19]	EC50 [20]	Ratio EC50 [21]	EC50 [22]	Ratio EC50 [23]	Ratio EC50 [25]	EC50 [27]	further results
CCNc1cc(Oc2c(OC)cc3cc(C#N)ccc3c2OC)nc(Nc2ccc(C#N)cc2)n1	90 nM	> 125 µM	580 nM	61 nM	> 30500	7	8.8 nM	60 nM	130 nM	4.21 µM	16 nM	2	46	463	9.1 nM	1	> 1000 µM	64	14	420 nM	solubility [2]: 1 µg/mL (≈ 2.14 µM); IC50 [4]: 1310 nM; solubility [6]: 9 µg/mL (≈ 19.3 µM); IC50 [14]: 120 nM; IC50 [16]: 160 nM; IC50 [24]: 2320 nM; solubility [26]: < 1 µg/mL; IC50 [28]: 430 nM; IC50 [29]: 1160 nM
COc1cc2cc(C#N)ccc2c(OC)c1Oc1cc(N)nc(Nc2ccc(C#N)cc2)n1	20 nM	19 µM	176 nM	16 nM	3500	3	5.3 nM	20 nM	38 nM	0.33 µM	14 nM	3	6	61	5.4 nM	1	7.28 µM	33	7	30 nM	solubility [2]: < 1 µg/mL; IC50 [4]: 70 nM; solubility [6]: 1 µg/mL (≈ 2.28 µM); IC50 [14]: 40 nM; IC50 [16]: 40 nM; IC50 [24]: 150 nM; solubility [26]: < 1 µg/mL; IC50 [28]: 60 nM; IC50 [29]: 120 nM
COc1cc2cc(C#N)ccc2c(OC)c1Oc1cc(NC2CCCC2)nc(Nc2ccc(C#N)cc2)n1	–	> 125 µM	7530 nM	530 nM	> 5170	11	55 nM	210 nM	–	131 µM	230 nM	5	138	2742	–	1	> 1000 µM	158	77	6600 nM	IC50 [12]: 3.69 µM; IC50 [20]: 48 nM
CCC(C)CNc1cc(Oc2c(OC)cc3cc(C#N)ccc3c2OC)nc(Nc2ccc(C#N)cc2)n1 (stereo not drawn)	–	–	6140 nM	680 nM	> 3550	10	60 nM	270 nM	2480 nM	> 1000 µM	280 nM	4	216	>14450	69 nM	1	> 1000 µM	89	36	14900 nM	IC50 [30]: > 125 µM
COc1cc2cc(C#N)ccc2c(OC)c1Oc1cc(N2CCC(O)C2)nc(Nc2ccc(C#N)cc2)n1 (stereo not drawn)	150 nM	> 125 µM	400 nM	48 nM	22800	4	19 nM	100 nM	120 nM	1.33 µM	45 nM	4	76	124	11 nM	2	9.12 µM	38	11	810 nM	solubility [2]: 1 µg/mL (≈ 1.97 µM); IC50 [4]: 490 nM; solubility [6]: 2 µg/mL (≈ 3.93 µM); IC50 [14]: 240 nM; IC50 [16]: 180 nM; IC50 [24]: 1060 nM; solubility [26]: < 1 µg/mL; IC50 [28]: 450 nM; IC50 [29]: 880 nM
COc1cc2cc(C#N)ccc2c(OC)c1Oc1cc(NCCCCO)nc(Nc2ccc(C#N)cc2)n1	–	39.1 µM	740 nM	190 nM	2190	11	20 nM	80 nM	300 nM	2.81 µM	47 nM	3	31	158	18 nM	1	4.93 µM	41	17	550 nM	–
COc1cc2cc(C#N)ccc2c(OC)c1Oc1cc(NCC(O)CO)nc(Nc2ccc(C#N)cc2)n1 (stereo not drawn)	–	29.5 µM	1260 nM	730 nM	293	7	93 nM	80 nM	1040 nM	3.11 µM	280 nM	3	9	31	100 nM	1	> 1000 µM	13	17	930 nM	–
